The source of these data is patent US10035790B2, “RORγ modulators” (BRISTOL-MYERS SQUIBB COMPANY, priority 2012, dated 2018).

The test addresses T1, ligand binding domain of human RORγ (A262-S507) (Homo sapiens, UniProt P51449).
T1 construct: made in house; host or cells: E. coli
T1 sequence (P51449 262-507): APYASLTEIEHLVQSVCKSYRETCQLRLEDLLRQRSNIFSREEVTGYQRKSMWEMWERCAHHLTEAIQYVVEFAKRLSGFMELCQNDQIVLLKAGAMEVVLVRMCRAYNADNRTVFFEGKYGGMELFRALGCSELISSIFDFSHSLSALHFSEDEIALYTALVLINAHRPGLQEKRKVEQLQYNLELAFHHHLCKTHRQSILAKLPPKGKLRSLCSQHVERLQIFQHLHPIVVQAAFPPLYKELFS
Description: General RORγ SPA binding assay (competition with [3H]25-hydroxycholesterol). The note with it: RORγ SPA binding assay, inhibition of [3H]25-hydroxycholesterol binding; read-out: IC50. In a few lines:
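N-terminally His-tagged protein was expressed in E. coli and nickel-purified. Then 50 nM protein was preincubated with compound for 15 min at room temperature in PBS with 0.5% fatty acid free BSA, followed by radioligand for 15 min and copper His-tag SPA beads for 30 min. IC50 came from percent inhibition of binding.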
As to `Nc1ncc(C(N)COc2cccc(C(F)(F)F)n2)c(C2CCN(C(=O)Nc3c(F)cccc3F)CC2)n1` (centres unmarked) [Compound N24, 4-[2-Amino-5-(1-amino-2-{[6-(trifluoromethyl)pyridin-2-yl]oxy}ethyl)pyrimidin-4-yl]-N-(2,6-difluorophenyl)piperidine-1-carboxamide], the IC50 is 9.3 nM.

With `C/C(=N\Oc1ccnc(C(F)(F)F)n1)c1cnc(C)nc1C1CCN(C(=O)Nc2c(F)cccc2C(F)(F)F)CC1` [Compound B39, N-[2-Fluoro-6-(trifluoromethyl)phenyl]-4-{2-methyl-5-[(1E)-N-{[2-(trifluoromethyl)pyrimidin-4-yl]oxy}ethanimidoyl]pyrimidin-4-yl}piperidine-1-carboxamide], the IC50 stood at 93.3 nM.

Consider `Cc1cc(C)cc(CNC(=O)c2cnc(C)nc2C2CCN(C(=O)Cc3cccc4ccccc34)CC2)c1` [Compound A19, N-(3,5-dimethylbenzyl)-2-methyl-4-(1-(2-(naphthalen-1-yl)acetyl)piperidin-4-yl)pyrimidine-5-carboxamide], for which the 50% inhibitory concentration (IC50) came to 155 nM.

As to `Cc1ncc(C(F)(F)CNc2nccc(C(F)(F)F)n2)c(C2CCN(C(=O)Cc3c(F)cccc3F)CC2)n1` [Compound N21, N-[2-(4-{1-[(2,6-Difluorophenyl)acetyl]piperidin-4-yl}-2-methylpyrimidin-5-yl)-2,2-difluoroethyl]-4-(trifluoromethyl)pyrimidin-2-amine], the 50% inhibitory concentration (IC50) was determined as 14.2 nM.

As for `CC(=O)Nc1nc(C)c(C(=O)COc2cccc(C(F)(F)F)n2)c(C2CCN(C(=O)Nc3c(F)cccc3F)CC2)n1` [Compound M12, 4-[2-(Acetylamino)-6-methyl-5-({[6-(trifluoromethyl)pyridin-2-yl]oxy}acetyl)pyrimidin-4-yl]-N-(2,6-difluorophenyl)piperidine-1-carboxamide], the IC50 was 6.2 nM.

As for `Cc1cc(C)cc(C(=O)NCc2cnc(C)nc2C2CCN(C(=O)Cc3c(F)cccc3F)CC2)c1` [Compound K1, N-((4-(1-(2-(2,6-Difluorophenyl)acetyl)piperidin-4-yl)-2-methylpyrimidin-5-yl)methyl)-3,5-dimethylbenzamide], the half-maximal inhibitory concentration (IC50) turned out to be 4110 nM.

Turning to `Cc1cc(C)cc(CCCc2cnc(C)nc2C2CCN(C(=O)Cc3c(F)cccc3F)CC2)c1` [Compound J3, 2-(2,6-Difluorophenyl)-1-(4-(5-(3-(3,5-dimethylphenyl)propyl)-2-methylpyrimidin-4-yl)piperidin-1-yl)ethanone], the half-maximal inhibitory concentration (IC50) amounted to 7.7 nM.

Take `Cc1cc(C)cc(COC(C)c2cnc(C)nc2C2CCN(C(=O)Cc3c(F)cccc3F)CC2)c1` (centres unmarked) [Compound E11, 2-(2,6-Difluorophenyl)-1-(4-(5-(1-(3,5-dimethylbenzyloxy)ethyl)-2-methylpyrimidin-4-yl)piperidin-1-yl)ethanone]: the IC50 came out at 19.2 nM.

With `CC(=O)N1CCC(NCC(O)(COc2cccc(C(F)(F)F)n2)c2cnc(C)nc2C2CCN(C(=O)Nc3c(F)cccc3F)CC2)C1` (centres unmarked) [Compound N40, 4-(5-{2-[(1-Acetylpyrrolidin-3-yl)amino]-1-hydroxy-1-({[6-(trifluoromethyl)pyridin-2-yl]oxy}methyl)ethyl}-2-methylpyrimidin-4-yl)-N-(2,6-difluorophenyl)piperidine-1-carboxamide], the 50% inhibitory concentration (IC50) worked out at 134 nM.

For the compound `Cc1ncc(C(C)(O)CNc2ccnc(C(F)(F)F)n2)c(C2CCN(C(=O)Cc3c(F)cccc3F)CC2)n1` (centres unmarked) [Compound D5, 2-(2,6-difluorophenyl)-1-(4-(5-(2-hydroxy-1-((2-(trifluoromethyl)pyrimidin-4-yl)amino)propan-2-yl)-2-methylpyrimidin-4-yl)piperidin-1-yl)ethanone], the half-inhibitory concentration (IC50) was found to be 8.4 nM.

On to `Cc1nc(N)nc(C2CCN(C(=O)Nc3c(F)cccc3F)CC2)c1-c1cnc(-c2ccnc(C(F)(F)F)n2)o1` [Compound C70, 4-(2-Amino-6-methyl-5-{2-[2-(trifluoromethyl)pyrimidin-4-yl]-1,3-oxazol-5-yl}pyrimidin-4-yl)-N-(2,6-difluorophenyl)piperidine-1-carboxamide], for which the IC50 came out at 108 nM.

Turning to `Cc1cc(C)cc(CC=Cc2cnc(C)nc2C2CCN(C(=O)Cc3c(F)cccc3F)CC2)c1` (mixture of isomers) [Compound J1, (E)-2-(2,6-Difluorophenyl)-1-(4-(5-(3-(3,5-dimethylphenyl)prop-1-enyl)-2-methylpyrimidin-4-yl)piperidin-1-yl)ethanone], the IC50 worked out at 46 nM.

Turning to `Cc1nc(N)nc(C2CCN(C(=O)Oc3ccccc3Cl)CC2)c1-c1nnc(-c2ccnc(C(F)(F)F)n2)o1` [Compound C51, 2-Chlorophenyl 4-(2-amino-6-methyl-5-{5-[2-(trifluoromethyl)pyrimidin-4-yl]-1,3,4-oxadiazol-2-yl}pyrimidin-4-yl)piperidine-1-carboxylate], the IC50 amounted to 10.5 nM.

On to `Cc1cc(C)cc(CNC(=O)c2cnc(C)nc2C2CCN(C(=O)Cc3ccccc3[N+](=O)[O-])CC2)c1` [Compound A15, N-(3,5-dimethylbenzyl)-2-methyl-4-(1-(2-(2-nitrophenyl)acetyl)piperidin-4-yl)pyrimidine-5-carboxamide], for which the 50% inhibitory concentration (IC50) worked out at 70 nM.

In the case of `Cc1nc(C)c(C(O)COc2ccnc(C(F)(F)F)n2)c(C2CCN(C(=O)Nc3c(F)cccc3F)CC2)n1` (centres unmarked) [Compound M9, N-(2,6-Difluorophenyl)-4-[5-(1-hydroxy-2-{[2-(trifluoromethyl)pyrimidin-4-yl]oxy}ethyl)-2,6-dimethylpyrimidin-4-yl]piperidine-1-carboxamide], the IC50 was determined as 2 nM.

On to `Cc1ncc(/C(CO)=N/Oc2ccnc(C(F)(F)F)n2)c(C2CCN(C(=O)Cc3c(F)cccc3F)CC2)n1` [Compound B25, (Z)-2-(2,6-difluorophenyl)-1-(4-(5-(2-hydroxy-1-(((2-(trifluoromethyl)pyrimidin-4-yl)oxy)imino)ethyl)-2-methylpyrimidin-4-yl)piperidin-1-yl)ethanone], for which the IC50 was found to be 11.2 nM.

Take `Cc1cc(C)cc(CNC(=O)c2cncnc2C2CCN(C(=O)Cc3c(F)cccc3F)CC2)c1` [Compound A57, 4-(1-(2-(2,6-difluorophenyl)acetyl)piperidin-4-yl)-N-(3,5-dimethylbenzyl)pyrimidine-5-carboxamide]: the IC50 was found to be 21.8 nM.

With `CC(=O)Nc1nc(C)c(C(O)COc2cccc(C(F)(F)F)n2)c(C2CCN(C(=O)Nc3c(F)cccc3F)CC2)n1` (centres unmarked) [Compound N10, 4-[2-(Acetylamino)-5-(1-hydroxy-2-{1-[6-(trifluoromethyl)pyridin-2-yl]oxy}ethyl)-6-methylpyrimidin-4-yl]-N-(2,6-difluorophenyl)piperidine-1-carboxamide], the IC50 was found to be 20.9 nM.

As for `Cc1ncc(/C(COc2cccc(C(F)(F)F)n2)=N/O)c(C2CCN(C(=O)Nc3c(F)cccc3F)CC2)n1` [Compound N26, N-(2,6-difluorophenyl)-4-{5-[(1Z)—N-hydroxy-2-{[6-(trifluoromethyl)pyridin-2-yl]oxy}ethanimidoyl]-2-methylpyrimidin-4-yl}piperidine-1-carboxamide], the IC50 came out at 141 nM.

Take `Cc1cc(C)cc(COC(C)(C)c2cnc(C)nc2C2CCN(C(=O)Cc3c(F)cccc3F)CC2)c1` [Compound E5, 2-(2,6-Difluorophenyl)-1-(4-(5-(2-(3,5-dimethylbenzyloxy)propan-2-yl)-2-methylpyrimidin-4-yl)piperidin-1-yl)ethanone]: the IC50 stood at 10.6 nM.

The IC50 is the midpoint of a concentration-inhibition curve.
